In patent US20260364134A1, “AGENT FOR SUPPRESSING AMYLOID BETA AGGREGATION/DEPOSITION AND AGENT FOR SUPPRESSING COGNITIVE FUNCTION DECLINE/IMPROVING COGNITIVE FUNCTION IN A SUBJECT” (KANEKA CORPORATION, priority 2023, published 2026):

Legend:
Aβ = details: cited from earlier work
[1] = target: amyloid β (Aβ) in cerebral organoids (Homo sapiens, UniProt P05067); assay: Aβ aggregation/deposition suppression in cerebral organoids (QD-Aβ40/Aβ42, fluorescence microscopy); assay type: cell-based; details: Example 3, 24 hours after addition
Experimental: The end of a 1000-μl tip was cut off with sterilized scissors, and the organoids produced in Example 1 that had grown to a diameter of 1 mm or more were aspirated without disrupting them, and transferred to a U-bottom 96-well plate. […]
The next day, all of the culture supernatant was removed without aspirating the organoid, and 150 μl of fresh NbM medium was added. The cultured organoids were then observed and photographed under a fluorescence microscope.
Using a fluorescence microscope (BZ-X800 manufactured by KEYENCE CORPORATION), the cultured organoids in Example 2 were photographed in a bright field at a high resolution with an exposure time of 1/500 s to 1/2000 s, or at a high sensitivity with an exposure time of 1/2000 s to 1/5000 s, with Z stacks with a pitch of 20 μm. […] Subsequently, to observe the deposition of quantum dot-modified amyloid β in the cultured organoid, red fluorescence was observed using a TRITC lens at a high sensitivity with an exposure time of ¼ s to 1/8.5 s, and images were obtained according to the procedure described above.
Each of the images obtained above was analyzed as follows. […] The threshold of the loaded bright-field image was set to 200, and the organoid area (organoid surface area) was calculated. […]
The black balance level of image processing was adjusted for the fluorescent images of various tests. First, the negative control image was read out. […]

Chain of amyloid β (Aβ) in cerebral organoids (P05067 672-713): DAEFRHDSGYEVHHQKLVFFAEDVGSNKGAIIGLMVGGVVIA

O=C(/C=C/c1ccc(O)c(O)c1)O[C@H](Cc1ccc(O)c(O)c1)C(=O)O [rosmarinic acid, Rosmarinic acid]
effect of suppressing Aβ aggregation (known) (Aβ): known to have an effect of suppressing Aβ aggregation
Effect of suppressing Aβ aggregation/deposition in cerebral organoids (in words) [1]: not a drug that has an effect of suppressing Aβ aggregation/deposition in cerebral organoids
Aβ aggregation/deposition suppression rate in cerebral organoids ([1]; rosmarinic acid final 50 μM, QD-Aβ40 30 nM, Aβ42 10 μM): 3.9%
